Structures can show the parent of a compound that is named as a salt.
Assays:
[1] = tested on: HN5 tumor cells; assay: Cell growth inhibition assay (CellTiter-Glo), HN5; assay type: cell-based, Human; conditions: Homo sapiens, 72 h; 3 days incubation
Description: (§1) Human breast tumor cells (BT474) were cultured in RPMI (Mediatech […]), containing 10% FBS (JRH Biosciences 12176) and 1% penicillin-streptomycin (Invitrogen 15140). Human head and neck tumor cells (HN5) were cultured in high glucose DMEM (Mediatech 50-013-PB) containing 10% FBS and 1% penicillin-streptomycin. Human colon tumor cells (Colo205) were cultured in RPMI (Mediatech 50-020-PB) containing 10% FBS and 1% penicillin-streptomycin. Human melanoma cancer cells (SK-MEL-28) were cultured in EMEM with nonessential amino acids (Mediatech 50-011-PB) containing 10% FBS, 1% sodium pyruvate (JT Baker 3354-04), and 1% penicillin-streptomycin. Human melanoma cancer cells (A375P F11s) were cultured in RPMI (Mediatech 50-020-PB) containing 10% FBS, 1% sodium pyruvate, and 1% penicillin-streptomycin. Human colon cancer cells (HT-29) were cultured in high glucose DMEM (Mediatech 50-013-PB) containing 10% FBS and 1% penicillin-streptomycin. Human melanoma cancer cells (SK-MEL-3) were cultured in McCoy's 5A (50-025-PB) containing 15% FBS, and 1% penicillin-streptomycin. All cell lines were maintained at 37° C. in a humidified 5% CO2, 95% air incubator. Cells were harvested using trypsin/EDTA (Invitrogen 25200), counted using a haemocytometer, and plated. For 96-well assays (using white full-area NUNC plates cat. #136102), cells were plated in 105 μL at the following densities (cells/well): HNS, 500; Colo 205, 500; SK-MEL-28, 500; A375P F11s, 500; HT-29, 500; SK-MEL-3, 500; and BT474, 3000. For 384-well assays (white full-area NUNC plates, cat. #781080), cells were plated in 48 μL at the following densities (cells/well): HNS, 500; Colo205, 500; SK-MEL-28, 500; A375P F11s, 500; HT-29, 500; SK-MEL-3, 500; and BT474, 2000.
(§2) The next day, compounds were diluted as follow: For 96-well assays, 13.5 μL of compound in DMSO were diluted using nine (9) serial 1:3 dilutions of 4.5 μL in 9 of DMSO. Medium (270 μL/well of RPMI with 10% FBS and 1% penicillin-streptomycin) was added to the plates. Aliquots (7 μL) were added to cells in the final assay giving a final DMSO concentration of 0.2%. For 384-well assays, 15 μL of compound in DMSO were diluted using nine (9) serial 1:3 dilutions of 5 μL in 10 μL of DMSO, followed by a further dilution of 5 μL of compound with 95 μL of medium, of which 2 μL were added to cells in the final assay giving a final DMSO concentration of 0.2%. Cells were incubated at 37° C., 5% CO2 for 3 days.
(§3) Total ATP was measured (as a surrogate estimate of cell number) using CellTiter-Glo® reagent (Promega G7571). Briefly, plates were removed from the incubator and allowed to equilibrate to room temperature for 30 minutes. CellTiter-Glo® (25 μL or 55 μL for 384-well or 96-well assays, respectively) reagent was added to each well and plates were shaken on an orbital plate shaker for 2 minutes. Plates were incubated without shaking for a further 30 minutes and read on an LJL Analyst GT reader in luminometer mode with an integration time of 0.5 seconds per well. Percent inhibition of cell growth was calculated relative to DMSO vehicle-treated control wells. Concentration of compound required to give 50% inhibition of vehicle-treated control cell growth (IC50) was interpolated using a 4-parameter fit for determining IC50 using the following equation: Y=A +((B−A)/(1+((C/X)̂D))) where […].

[2] = biological target: B-Raf (Homo sapiens, UniProt P15056); assay: B-Raf Accelerated MEK ATPase assay (BRAMA), Method A or B; assay type: biochemical; conditions: Method B: final MEK 150 nM, single end point read
Chain of B-Raf (P15056 whole entry): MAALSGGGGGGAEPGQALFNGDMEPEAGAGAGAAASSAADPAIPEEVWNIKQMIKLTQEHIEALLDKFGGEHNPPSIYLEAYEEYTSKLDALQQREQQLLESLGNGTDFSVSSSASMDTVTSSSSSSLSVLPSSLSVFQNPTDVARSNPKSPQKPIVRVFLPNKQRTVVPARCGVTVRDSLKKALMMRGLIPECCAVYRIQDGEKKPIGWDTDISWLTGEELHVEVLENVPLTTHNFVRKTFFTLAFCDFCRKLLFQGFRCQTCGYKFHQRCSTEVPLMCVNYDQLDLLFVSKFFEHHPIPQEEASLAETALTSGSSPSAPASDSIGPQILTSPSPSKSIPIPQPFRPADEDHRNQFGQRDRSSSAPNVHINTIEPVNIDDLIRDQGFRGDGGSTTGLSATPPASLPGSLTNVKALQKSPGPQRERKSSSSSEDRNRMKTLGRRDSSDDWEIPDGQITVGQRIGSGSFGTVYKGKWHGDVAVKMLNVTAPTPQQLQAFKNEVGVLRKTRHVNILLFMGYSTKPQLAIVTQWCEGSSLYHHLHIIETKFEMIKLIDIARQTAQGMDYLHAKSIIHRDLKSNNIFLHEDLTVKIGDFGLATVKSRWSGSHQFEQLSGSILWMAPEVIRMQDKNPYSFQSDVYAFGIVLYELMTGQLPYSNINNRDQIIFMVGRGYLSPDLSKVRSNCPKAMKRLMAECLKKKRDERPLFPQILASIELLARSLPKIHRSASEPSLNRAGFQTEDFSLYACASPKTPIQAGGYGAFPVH
In short: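 Activated Raf plus non-phosphorylated MEK drives MEK-mediated ATP hydrolysis; ADP formation coupled via pyruvate kinase/lactate dehydrogenase to NADH oxidation. Method A read kinetically; Method B used 150 nM final MEK and a single end-point read.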

[3] = tested on: A375P F11s tumor cells; assay: Cell growth inhibition assay (CellTiter-Glo), A375P F11s; assay type: cell-based, Human; conditions: Homo sapiens
Description: as §1, §2, §3

[4] = tested on: Colo205 tumor cells; assay: Cell growth inhibition assay (CellTiter-Glo), Colo205; assay type: cell-based, Human; conditions: Homo sapiens, COLO 205, 72 h; 3 days incubation
In short: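 Cells plated at 500 cells/well in their growth media, dosed next day with nine-step 1:3 compound dilutions (final DMSO 0.2%), then incubated 3 days at 37° C, 5% CO2. Total ATP read by CellTiter-Glo luminescence as a surrogate for cell number; IC50 interpolated from 4-parameter fit versus DMSO controls.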

[5] = tested on: BT474 tumor cells; assay: Cell growth inhibition assay (CellTiter-Glo), BT474; assay type: cell-based, Human; conditions: Homo sapiens, BT-474, 72 h, 3 days incubation
Description: as §1, §2, §3

Structure (SMILES) | IC50 [1] [nM] | IC50 [2] [nM] | IC50 [3] [nM] | IC50 [4] [nM] | IC50 [5] [nM]
COc1cc(N2CCC(N3CCN(CCS(C)(=O)=O)CC3)CC2)ccc1Nc1nccc(-c2sc(C(C)C)nc2-c2cccc(NS(=O)(=O)c3c(F)cccc3F)c2)n1 [Example 20, 2,6-Difluoro-N-{3-[2-(1-methylethyl)-5-(2-{[2-(methyloxy)-4-(4-{4-[2-(methylsulfonyl)ethyl]-1-piperazinyl}-1-piperidinyl)phenyl]amino}-4-pyrimidinyl)-1,3-thiazol-4-yl]phenyl}benzenesulfonamide] | > 1000 | < 100 | 100 to 1000 | < 100 | > 1000
O=S(=O)(Nc1cccc(-c2nc(N3CCCC3)sc2-c2ccnc(Nc3ccc(N4CCN(CCF)CC4)c(F)c3)n2)c1)c1c(F)cccc1F [Example 21, 2,6-Difluoro-N-{3-[5-[2-({3-fluoro-4-[4-(2-fluoroethyl)-1-piperazinyl]phenyl}amino)-4-pyrimidinyl]-2-(1-pyrrolidinyl)-1,3-thiazol-4-yl]phenyl}benzenesulfonamide] | 100 to 1000 | < 100 | < 100 | < 100 | > 1000
CC(C)c1nc(-c2ccc(F)c(NS(=O)(=O)c3ccccc3F)c2)c(-c2ccnc(Nc3ccc(N4CCN(CCS(C)(=O)=O)CC4)c(F)c3)n2)s1 [Example 22, 2-Fluoro-N-{2-fluoro-5-[5-{2-[(3-fluoro-4-}4-[2-(methylsulfonyl)ethyl]-1-piperazinyl}phenyl)amino]-4-pyrimidinyl}-2-(1-methylethyl)-1,3-thiazol-4-yl]phenyl}benzenesulfonamide hydrochloride] | > 1000 | < 100 | < 100 | < 100 | > 1000
CC(C)c1nc(-c2ccc(F)c(NS(=O)(=O)c3c(F)cccc3F)c2)c(-c2ccnc(Nc3ccc(N4CCOCC4)nc3)n2)s1 [Example 23, 2,6-Difluoro-N-{2-fluoro-5-[2-(1-methylethyl)-5-(2-{[6-(4-morpholinyl)-3-pyridinyl]amino}-4-pyrimidinyl)-1,3-thiazol-4-yl]phenyl}benzenesulfonamide] | > 1000 | < 100 | < 100 | < 100 | > 1000
CC(C)c1nc(-c2ccc(F)c(NS(=O)(=O)c3c(F)cccc3F)c2)c(-c2ccnc(Nc3ccc(N4CCC(C#N)CC4)nc3)n2)s1 [Example 24, N-{5-[5-(2-{[6-(4-Cyano-1-piperidinyl)-3-pyridinyl]amino}-4-pyrimidinyl)-2-(1-methylethyl)-1,3-thiazol-4-yl]-2-fluorophenyl}-2,6-difluorobenzenesulfonamide] | > 1000 | < 100 | < 100 | < 100 | > 1000
CC(C)c1nc(-c2ccc(F)c(NS(=O)(=O)c3c(F)cccc3F)c2)c(-c2ccnc(Nc3ccc(N4CCN(CCF)CC4)c(F)c3)n2)s1 [Example 25] | > 1000 | < 100 | 100 to 1000 | < 100 | > 1000
O=S(=O)(Nc1cc(-c2nc(N3CCCC3)sc2-c2ccnc(Nc3ccc(N4CCOCC4)nc3)n2)ccc1F)c1c(F)cccc1F [Example 26, 2,6-Difluoro-N-{2-fluoro-5-[5-(2-{(6-(4-morpholinyl)-3-pyridinyl]amino}-4-pyrimidinyl)-2-(1-pyrrolidinyl)-1,3-thiazol-4-yl]phenyl}benzenesulfonamide] | > 1000 | < 100 | < 100 | < 100 | > 1000
CN(C)c1nc(-c2ccc(F)c(NS(=O)(=O)c3c(F)cccc3F)c2)c(-c2ccnc(Nc3ccc(N4CCOCC4)nc3)n2)s1 [Example 27, N-{5-[2-(Dimethylamino)-5-(2-{[6-(4-morpholinyl)-3-pyridinyl]amino}-4-pyrimidinyl)-1,3-thiazol-4-yl]-2-fluorophenyl}-2,6-difluorobenzenesulfonamide] | > 1000 | < 100 | < 100 | 100 to 1000 | > 1000
CC(C)(C)c1nc(-c2ccc(F)c(NS(=O)(=O)c3c(F)cccc3F)c2)c(-c2ccnc(Nc3ccc(N4CCOCC4)nc3)n2)s1 [Example 28, N-{5-[2-(1,1-Dimethylethyl)-5-(2-{[[6-(4-morpholinyl)-3-pyridinyl]amino}-4-pyrimidinyl)-1,3-thiazol-4-yl]-2-fluorophenyl]-2,6-difluorobenzenesulfonamide hydrochloride] | > 1000 | < 100 | < 100 | < 100 | > 1000
CC(C)c1nc(-c2cccc(NS(=O)(=O)c3c(F)cccc3F)c2F)c(-c2ccnc(Nc3ccc(N4CCN(CCF)CC4)c(F)c3)n2)s1 [Example 29, 2,6-Difluoro-N-{2-fluoro-3-[5-[2-({3-fluoro-4-[4-(2-fluoroethyl)-1-piperazinyl]phenyl}amino)-4-pyrimidinyl]-2-(1-methylethyl)-1,3-thiazol-4-yl]phenyl}benzenesulfonamide] | 100 to 1000 | < 100 | < 100 | < 100 | > 1000
CC(C)c1nc(-c2cccc(NS(=O)(=O)c3c(F)cccc3F)c2F)c(-c2ccnc(Nc3cnc(N4CCOCC4)c(F)c3)n2)s1 [Example 30, 2,6-Difluoro-N-{2-fluoro-3-[5-(2-{[5-fluoro-6-(4-morpholinyl)-3-pyridinyl]amino}-4-pyrimidinyl)-2-(1-methylethyl)-1,3-thiazol-4-yl]phenyl}benzenesulfonamide] | < 100 | < 100 | < 100 | < 100 | > 1000
CC(C)c1nc(-c2cc(F)c(F)c(NS(=O)(=O)c3cccc(F)c3)c2)c(-c2ccnc(Nc3cnc(N4CCOCC4)c(F)c3)n2)s1 [Example 31, N-{2,3-Difluoro-5-[5-(2-{[5-fluoro-6-(4-morpholinyl)-3-pyridinyl]amino}-4-pyrimidinyl)-2-(1-methylethyl)-1,3-thiazol-4-yl]phenyl}-3-fluorobenzenesulfonamide] | > 1000 | < 100 | 100 to 1000 | 100 to 1000 | > 1000
CC(C)c1nc(-c2ccnc(NS(=O)(=O)c3c(F)cccc3F)c2)c(-c2ccnc(Nc3ccc(N4CCOCC4)nc3)n2)s1 [Example 32, 2,6-Difluoro-N-{4-[2-(1-methylethyl)-5-(2-{[6-(4-morpholinyl}-3-pyridinyl]amino}-4-pyrimidinyl)-1,3-thiazol-4-yl]-2-pyridinyl}benzenesulfonamide] | > 1000 | < 100 | < 100 | < 100 | > 1000
CC(C)c1nc(-c2ccnc(NS(=O)(=O)c3c(F)cccc3F)c2)c(-c2ccnc(Nc3cnc(N4CCOCC4)c(F)c3)n2)s1 [Example 33] | > 1000 | < 100 | < 100 | < 100 | > 1000

From patent publication US20110319392A1, “Thiazole Sulfonamide And Oxazole Sulfonamide Kinase Inhibitors” (priority 2009, published 2011)
